Results: ChEMBL document CHEMBL3233003, “Chromodomain antagonists that target the polycomb-group methyllysine reader protein chromobox homolog 7 (CBX7)” (J Med Chem, 2014)
Non-standard residues stand in square brackets, D forms with d. Residues, ends and D or L forms follow the SMILES beside them. *: point of attachment. Lys(Me3) = C[N+](C)(C)CCCC[C@H](N)C(=O)O; Gly(cPent) = N[C@H](C(=O)O)C1CCCC1; NBnAla = C[C@H](NCc1ccccc1)C(=O)O; X3 = COC(=O)c1ccc(S(=O)(=O)*)cc1; X6 = O=C(O)c1ccc(S(=O)(=O)*)cc1; Cha = N[C@@H](CC1CCCCC1)C(=O)O; Tle = CC(C)(C)[C@H](N)C(=O)O; Tos = Cc1ccc(S(=O)(=O)*)cc1; Nle = CCCC[C@H](N)C(=O)O; X10 = O=C(Cc1ccccc1Br)*; X7 = O=S(=O)(c1cccnc1)*; Cbz = O=C(OCc1ccccc1)*; PhAc = O=C(Cc1ccccc1)*; X4 = CC(C)C(CO)N*; NHPr = CCCN*

Each compound was assayed against T1, Chromobox protein homolog 7 (Homo sapiens, UniProt O95931) (assay: Displacement of FITC-labeled H3K27me3 from CBX7 (unknown origin) after 15 mins by fluorescence polarization assay).
T1 sequence (O95931 whole entry): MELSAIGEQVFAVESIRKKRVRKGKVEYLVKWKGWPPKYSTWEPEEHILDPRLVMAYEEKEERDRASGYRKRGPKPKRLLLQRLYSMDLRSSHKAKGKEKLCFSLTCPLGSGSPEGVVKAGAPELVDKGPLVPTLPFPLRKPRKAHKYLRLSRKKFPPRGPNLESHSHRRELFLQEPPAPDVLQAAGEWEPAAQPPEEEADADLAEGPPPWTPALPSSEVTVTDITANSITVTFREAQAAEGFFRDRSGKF
`CC(C)C[C@H](NC(=O)[C@H](C)NC(=O)OCc1ccccc1)C(=O)N[C@@H](CCCC[N+](C)(C)C)C(=O)N[C@@H](CO)C(N)=O` (Cbz-AL[Lys(Me3)]S-NH2) gave an IC50 of 58 µM.
In the case of `Cc1ccc(S(=O)(=O)N[C@@H](Cc2ccccc2)C(=O)N[C@@H](C)C(=O)N[C@@H](CC(C)C)C(=O)N[C@@H](CCCC[N+](C)(C)C)C(=O)N[C@@H](CO)C(N)=O)cc1` (Tos-FAL[Lys(Me3)]S-NH2), the IC50 is reported as > 250 µM.
`CCCC[C@H](NC(=O)[C@H](Cc1ccccc1)NC(C)=O)C(=O)N[C@@H](CC(C)C)C(=O)N[C@@H](CCCC[N+](C)(C)C)C(=O)N[C@@H](CO)C(N)=O` (Ac-F[Nle]L[Lys(Me3)]S-NH2) gave an IC50 of 120 µM.
`CC(=O)N[C@@H](Cc1ccccc1)C(=O)N[C@@H](C)C(=O)N[C@@H](CC(C)C)C(=O)N[C@@H](CCCC[N+](C)(C)C)C(=O)O` (Ac-FAL[Lys(Me3)]-OH) showed an IC50 of 560 µM.
`CSCC[C@H](NC(=O)[C@H](C)NC(=O)[C@H](Cc1ccccc1)NC(C)=O)C(=O)N[C@@H](CCCC[N+](C)(C)C)C(=O)N[C@@H](CO)C(N)=O` (Ac-FAM[Lys(Me3)]S-NH2) was tested, and the IC50 was 62 µM.
`CC(=O)N[C@@H](Cc1ccccc1)C(=O)N[C@H](C(=O)N[C@@H](CC(C)C)C(=O)N[C@@H](CCCC[N+](C)(C)C)C(=O)N[C@@H](CO)C(N)=O)C(C)C` (Ac-FVL[Lys(Me3)]S-NH2) was tested, and the IC50 was > 500 µM.
`CC(C)C[C@H](NC(=O)[C@H](C)NC(=O)CNS(=O)(=O)c1ccc(C(=O)O)cc1)C(=O)N[C@@H](CCCC[N+](C)(C)C)C(=O)N[C@@H](CO)C(N)=O` (X6-GAL[Lys(Me3)]S-NH2) showed an IC50 of 53 µM.
In the case of `CCCNC(=O)[C@H](CCCC[N+](C)(C)C)NC(=O)[C@H](CC(C)C)NC(=O)[C@H](C)NC(=O)[C@H](Cc1ccccc1)NC(C)=O` (Ac-FAL[Lys(Me3)]-NHPr), the IC50 is reported as 102 µM.
`CC(C)C[C@H](NC(=O)[C@H](C)NC(=O)Cc1ccccc1Br)C(=O)N[C@@H](CCCC[N+](C)(C)C)C(=O)N[C@@H](CO)C(N)=O` (X10-AL[Lys(Me3)]S-NH2) showed an IC50 of 89 µM.
With `CC(C)C[C@H](NC(=O)[C@H](C)NCc1ccccc1)C(=O)N[C@@H](CCCC[N+](C)(C)C)C(=O)N[C@@H](CO)C(N)=O` (H-[NBnAla]L[Lys(Me3)]S-NH2) the IC50 was > 2000 µM.
Work on `CC(=O)N[C@@H](Cc1ccccc1)C(=O)N[C@@H](C)C(=O)N[C@@H](CCCCN)C(=O)N[C@@H](CCCC[N+](C)(C)C)C(=O)N[C@@H](CO)C(N)=O` (Ac-FAK[Lys(Me3)]S-NH2) yielded an IC50 of 10.1 µM.
`CC(C)C[C@H](NC(=O)[C@H](C)NC(=O)Cc1ccccc1)C(=O)N[C@@H](CCCC[N+](C)(C)C)C(=O)N[C@@H](CO)C(N)=O` (PhAc-AL[Lys(Me3)]S-NH2) showed an IC50 of 23 µM.
Compound `CC[C@H](C)[C@H](NC(=O)[C@H](C)NC(=O)[C@H](Cc1ccccc1)NC(C)=O)C(=O)N[C@@H](CCCC[N+](C)(C)C)C(=O)N[C@@H](CO)C(N)=O` (Ac-FAI[Lys(Me3)]S-NH2) has an IC50 of 5.7 µM.
For `CC(=O)N[C@@H](Cc1ccccc1)C(=O)N[C@@H](C)C(=O)N[C@@H](CC1CCCCC1)C(=O)N[C@@H](CCCC[N+](C)(C)C)C(=O)N[C@@H](CO)C(N)=O` (Ac-FA[Cha][Lys(Me3)]S-NH2), the IC50 was 8.8 µM.
`CC(=O)N[C@@H](Cc1ccccc1)C(=O)N[C@@H](C)C(=O)N[C@H](C(=O)N[C@@H](CCCC[N+](C)(C)C)C(=O)N[C@@H](CO)C(N)=O)C(C)(C)C` (Ac-FA[Tle][Lys(Me3)]S-NH2) was tested, and the IC50 was 67 µM.
`CC(C)C[C@H](NC(=O)[C@H](C)NCc1ccc(C(=O)O)cc1)C(=O)N[C@@H](CCCC[N+](C)(C)C)C(=O)N[C@@H](CO)C(N)=O` was tested, and the IC50 was > 2000 µM.
`COC(=O)c1ccc(S(=O)(=O)N[C@@H](Cc2ccccc2)C(=O)N[C@@H](C)C(=O)N[C@@H](CC(C)C)C(=O)N[C@@H](CCCC[N+](C)(C)C)C(=O)N[C@@H](CO)C(N)=O)cc1` (X3-FAL[Lys(Me3)]S-NH2) gave an IC50 of 57 µM.
With `CC(C)C[C@H](NC(=O)[C@H](C)NS(=O)(=O)c1cccnc1)C(=O)N[C@@H](CCCC[N+](C)(C)C)C(=O)N[C@@H](CO)C(N)=O` (X7-AL[Lys(Me3)]S-NH2) the IC50 was > 250 µM.
Work on `CC(=O)N[C@@H](Cc1ccccc1)C(=O)N[C@@H](C)C(=O)N[C@H](C(=O)N[C@@H](CCCC[N+](C)(C)C)C(=O)N[C@@H](CO)C(N)=O)C1CCCC1` (Ac-FA[Gly(cPent)][Lys(Me3)]S-NH2) yielded an IC50 of 6 µM.
In the case of `CC(=O)N[C@@H](Cc1ccccc1)C(=O)N[C@@H](C)C(=O)N[C@@H](CC(C)C)C(=O)N[C@@H](CCCC[N+](C)(C)C)C(=O)NC(CO)C(C)C` (some centres not stated) (Ac-FAL[Lys(Me3)]-X4), the IC50 is reported as > 250 µM.
Work on `CC(=O)N[C@@H](Cc1ccccc1)C(=O)N[C@@H](C)C(=O)N[C@@H](Cc1c[nH]c2ccccc12)C(=O)N[C@@H](CCCC[N+](C)(C)C)C(=O)N[C@@H](CO)C(N)=O` (Ac-FAW[Lys(Me3)]S-NH2) yielded an IC50 of 13 µM.
For `CC(C)C[C@H](NC(=O)[C@H](C)NC(=O)CNC(=O)Cc1ccccc1)C(=O)N[C@@H](CCCC[N+](C)(C)C)C(=O)N[C@@H](CO)C(N)=O` (PhAc-GAL[Lys(Me3)]S-NH2), the IC50 was 100 µM.
